# Data taken from PubChem BioAssay AID2060492 (Molecular Pharmacology Branch, DTP, NCI, 2025).
# System: 695427-040-R-J1-PDC complex spheroids, viability percent T/C
# Experiment: Anticancer human tumor 695427-040-R-J1-PDC patient-derived colon adenocarcinoma cell line growth inhibition [GQUAD]
# Conditions: for IC50: curve of first compound; for viability, T/C: stronger effect = lower value
# Summary of the method: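 Multi-cell-type spheroids of tumor cells with HUVEC and mesenchymal stem cells, treated with drug combinations. Concentrations descend in half-log steps from near clinical Cmax, or from 10 microM where Cmax is unknown; viability read-out.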
# [1] = second compound 0.0316 µM, first compound 0.0316 µM
# [2] = second compound 0.0316 µM, first compound 0.1 µM
# [3] = second compound 0.0316 µM, first compound 0.316 µM
# [4] = second compound 0.0316 µM, first compound 1 µM
# [5] = second compound 0.0316 µM, first compound 3.16 µM
# [6] = second compound 0.0316 µM, first compound 10 µM
# [7] = second compound 0.1 µM, first compound 0.0316 µM
# [8] = second compound 0.1 µM, first compound 0.1 µM
# [9] = second compound 0.1 µM, first compound 0.316 µM
# [10] = second compound 0.1 µM, first compound 1 µM
# [11] = second compound 0.1 µM, first compound 3.16 µM
# [12] = second compound 0.1 µM, first compound 10 µM
# [13] = second compound 0.316 µM, first compound 0.0316 µM
# [14] = second compound 0.316 µM, first compound 0.1 µM
# [15] = second compound 0.316 µM, first compound 0.316 µM
# [16] = second compound 0.316 µM, first compound 1 µM
# [17] = second compound 0.316 µM, first compound 3.16 µM
# [18] = second compound 0.316 µM, first compound 10 µM
# [19] = second compound 1 µM, first compound 0.0316 µM
# [20] = second compound 1 µM, first compound 0.1 µM
# [21] = second compound 1 µM, first compound 0.316 µM
# [22] = second compound 1 µM, first compound 1 µM
# [23] = second compound 1 µM, first compound 3.16 µM
# [24] = second compound 1 µM, first compound 10 µM
# [25] = second compound 3.16 µM, first compound 0.0316 µM
# [26] = second compound 3.16 µM, first compound 0.1 µM
# [27] = second compound 3.16 µM, first compound 0.316 µM
# [28] = second compound 3.16 µM, first compound 1 µM
# [29] = second compound 3.16 µM, first compound 3.16 µM
# [30] = second compound 3.16 µM, first compound 10 µM
# [31] = second compound 10 µM, first compound 0.0316 µM
# [32] = second compound 10 µM, first compound 0.1 µM
# [33] = second compound 10 µM, first compound 0.316 µM
# [34] = second compound 10 µM, first compound 1 µM
# [35] = second compound 10 µM, first compound 3.16 µM
# [36] = second compound 10 µM, first compound 10 µM
# 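Also: spheroids exposed to compounds for seven days before readout.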
smiles,measurement,setting,value
Cc1cccc(N(C)C(=O)C2C(O)CCN2c2nc(C)cc(C(F)(F)F)c2C#N)c1 (stereo unspecified) + Cc1cnc(CNC(=O)c2c(=O)c3ccc(N4CCCN(C)CC4)nc3n3c2sc2ccccc23)cn1,IC50,second compound 0.0316 µM,> 10 µM
same,IC50,second compound 0.1 µM,> 10 µM
same,IC50,second compound 0.316 µM,> 10 µM
same,IC50,second compound 1 µM,> 10 µM
same,IC50,second compound 3.16 µM,< 0.0316 µM
same,IC50,second compound 10 µM,< 0.0316 µM
same,"viability, T/C",[1],110%
same,"viability, T/C",[2],92.5%
same,"viability, T/C",[3],76.6%
same,"viability, T/C",[4],78.7%
same,"viability, T/C",[5],87.5%
same,"viability, T/C",[6],62.9%
same,"viability, T/C",[7],87%
same,"viability, T/C",[8],80%
same,"viability, T/C",[9],102%
same,"viability, T/C",[10],71%
same,"viability, T/C",[11],87.9%
same,"viability, T/C",[12],79.1%
same,"viability, T/C",[13],72.5%
same,"viability, T/C",[14],78.4%
same,"viability, T/C",[15],51.4%
same,"viability, T/C",[16],74.7%
same,"viability, T/C",[17],77.5%
same,"viability, T/C",[18],69.9%
same,"viability, T/C",[19],62.1%
same,"viability, T/C",[20],57.7%
same,"viability, T/C",[21],57.8%
same,"viability, T/C",[22],56.9%
same,"viability, T/C",[23],83%
same,"viability, T/C",[24],60.7%
same,"viability, T/C",[25],38.8%
same,"viability, T/C",[26],47%
same,"viability, T/C",[27],54.8%
same,"viability, T/C",[28],51.2%
same,"viability, T/C",[29],67.8%
same,"viability, T/C",[30],50.9%
same,"viability, T/C",[31],32.1%
same,"viability, T/C",[32],40%
same,"viability, T/C",[33],46.6%
same,"viability, T/C",[34],47.1%
same,"viability, T/C",[35],59.5%
same,"viability, T/C",[36],42.5%
Cn1ncnc1[C@H]1c2n[nH]c(=O)c3cc(F)cc(c23)N[C@@H]1c1ccc(F)cc1 + Cc1cnc(CNC(=O)c2c(=O)c3ccc(N4CCCN(C)CC4)nc3n3c2sc2ccccc23)cn1,IC50,second compound 0.0316 µM,> 0.316 µM
same,IC50,second compound 0.1 µM,> 0.316 µM
same,IC50,second compound 0.316 µM,> 0.316 µM
same,IC50,second compound 1 µM,> 0.316 µM
same,IC50,second compound 3.16 µM,> 0.316 µM
same,IC50,second compound 10 µM,< 0.000999 µM
same,"viability, T/C","second compound 0.0316 µM, first compound 0.000999 µM",98.9%
same,"viability, T/C","second compound 0.0316 µM, first compound 0.00316 µM",84.2%
same,"viability, T/C","second compound 0.0316 µM, first compound 0.00999 µM",96.4%
same,"viability, T/C",[1],66.4%
same,"viability, T/C","second compound 0.0316 µM, first compound 0.0999 µM",86.2%
same,"viability, T/C",[3],71.7%
same,"viability, T/C","second compound 0.1 µM, first compound 0.000999 µM",93.5%
same,"viability, T/C","second compound 0.1 µM, first compound 0.00316 µM",101%
same,"viability, T/C","second compound 0.1 µM, first compound 0.00999 µM",87.5%
same,"viability, T/C",[7],62.9%
same,"viability, T/C","second compound 0.1 µM, first compound 0.0999 µM",91.8%
same,"viability, T/C",[9],60.6%
same,"viability, T/C","second compound 0.316 µM, first compound 0.000999 µM",65.7%
same,"viability, T/C","second compound 0.316 µM, first compound 0.00316 µM",83.5%
same,"viability, T/C","second compound 0.316 µM, first compound 0.00999 µM",88.1%
same,"viability, T/C",[13],71.5%
same,"viability, T/C","second compound 0.316 µM, first compound 0.0999 µM",66%
same,"viability, T/C",[15],66%
same,"viability, T/C","second compound 1 µM, first compound 0.000999 µM",53.7%
same,"viability, T/C","second compound 1 µM, first compound 0.00316 µM",53.9%
same,"viability, T/C","second compound 1 µM, first compound 0.00999 µM",60.7%
same,"viability, T/C",[19],55.9%
same,"viability, T/C","second compound 1 µM, first compound 0.0999 µM",82.5%
same,"viability, T/C",[21],56.5%
same,"viability, T/C","second compound 3.16 µM, first compound 0.000999 µM",51.6%
same,"viability, T/C","second compound 3.16 µM, first compound 0.00316 µM",48.7%
same,"viability, T/C","second compound 3.16 µM, first compound 0.00999 µM",53%
same,"viability, T/C",[25],62.1%
same,"viability, T/C","second compound 3.16 µM, first compound 0.0999 µM",63.3%
same,"viability, T/C",[27],46.5%
same,"viability, T/C","second compound 10 µM, first compound 0.000999 µM",37.8%
same,"viability, T/C","second compound 10 µM, first compound 0.00316 µM",44.7%
same,"viability, T/C","second compound 10 µM, first compound 0.00999 µM",58.2%
same,"viability, T/C",[31],47.7%
same,"viability, T/C","second compound 10 µM, first compound 0.0999 µM",58.5%
same,"viability, T/C",[33],40.1%
O=C(c1cc(Cc2n[nH]c(=O)c3ccccc23)ccc1F)N1CCN(C(=O)C2CC2)CC1 + Cc1cnc(CNC(=O)c2c(=O)c3ccc(N4CCCN(C)CC4)nc3n3c2sc2ccccc23)cn1,IC50,second compound 0.0316 µM,> 10 µM
same,IC50,second compound 0.1 µM,> 10 µM
same,IC50,second compound 0.316 µM,> 10 µM
same,IC50,second compound 1 µM,> 10 µM
same,IC50,second compound 3.16 µM,> 10 µM
same,IC50,second compound 10 µM,< 0.0316 µM
same,"viability, T/C",[1],94.2%
same,"viability, T/C",[2],101%
same,"viability, T/C",[3],93.5%
same,"viability, T/C",[4],77.7%
same,"viability, T/C",[5],83.5%
same,"viability, T/C",[6],90.9%
same,"viability, T/C",[7],102%
same,"viability, T/C",[8],79%
same,"viability, T/C",[9],95.5%
same,"viability, T/C",[10],57%
same,"viability, T/C",[11],92.7%
same,"viability, T/C",[12],87.3%
same,"viability, T/C",[13],95.4%
same,"viability, T/C",[14],63%
same,"viability, T/C",[15],91.9%
same,"viability, T/C",[16],74.7%
same,"viability, T/C",[17],86.8%
same,"viability, T/C",[18],80.8%
same,"viability, T/C",[19],60.3%
same,"viability, T/C",[20],69.6%
same,"viability, T/C",[21],53.8%
same,"viability, T/C",[22],57.4%
same,"viability, T/C",[23],71%
same,"viability, T/C",[24],66.2%
same,"viability, T/C",[25],52.9%
same,"viability, T/C",[26],53.3%
same,"viability, T/C",[27],53.5%
same,"viability, T/C",[28],46.6%
same,"viability, T/C",[29],62.6%
same,"viability, T/C",[30],51.1%
same,"viability, T/C",[31],32.1%
same,"viability, T/C",[32],53.5%
same,"viability, T/C",[33],49.9%
same,"viability, T/C",[34],48%
same,"viability, T/C",[35],48.1%
same,"viability, T/C",[36],40.2%
